Results as given in ChEMBL document CHEMBL3832023, “DailyMed|setid=c8b93fc1-472c-4890-8d02-2ee4f7175c22 | BUTALBITAL, ASPIRIN, CAFFEINE AND CODEINE PHOSPHATE- butalbital, aspirin,caffeine and codeine phosphate capsule|Jerome Stevens Pharmaceuticals”.

What was measured:
[1] = (§1) Pharmacokinetic parameters for aspirin and salicylic acid following oral administration of Aspirin,butalbital,caffeine phosphate capsules.; type: ADME, organism-based; parameters: dose 650 mg, route oral; details: human, in vivo, dosed compound id 37, dosed compound name ASPIRIN, tissue Plasma; for half-life: dose 650 mg, route oral
Homo sapiens = assay: as §1; type: ADME, organism-based; parameters: dose 650 mg, route oral; details: in vivo, po, dose 650 mg, dosed compound id 37, dosed compound name ASPIRIN, tissue Plasma

Cmax ([1]; po, 650 mg) [ng/mL]	Tmax (Homo sapiens) [min]	Structure (SMILES)	half-life [1] [min]
–	–	O=C(O)c1ccccc1O [SALICYLIC ACID]	180
8800	40	CC(=O)Oc1ccccc1C(=O)O [ASPIRIN]	12
